Measured values published in US5030629A, “Compositions and method comprising heterocyclic compounds containing two heteroatoms as membrane penetration enhancers” (priority 1989, dated 1991).
Read-outs that look alike come from different tables or passages of the source. Each block holds one molecule with its values, some of them ahead of it.

Assays:
[1] = format: in vitro ADME, human
Description: Sci. 75, 1094 (1986). […] All formulations were studied in triplicate.
Example 39 was repeated with 1% Diclofenac gel, with and without compound of Example 21, was evaluated. The aliquots were analyzed by U.V. Spectrophotometry and average cumulative amount of drug permeating over 24 hours was calculated.

[2] = patch, 5% ES, control without enhancer; receptor ethanol/saline (3:7)
Description: The compounds of the present invention were tested in vitro as penetration enhancers according to the procedure outlined below. The penetration enhancers were formulated with pharmacologically active agents in creams and patches.
Human stratum corneum was isolated from full thickness human skin as described by Bronaugh et. al., J. Pharm. […] The skin was placed between the donor and the receptor compartments of diffusion cells in such a way that the dermal side of the skin faced the receptor compartment which was filled with normal saline (pH 7.2-7.4) or appropriate releasing media. The stratum corneum was equilibrated at 37° C. overnight prior to the application of a topical formulation or a transdermal patch. All formulations were studied in triplicate.
The entire contents of the receptor compartment were removed at specific time intervals for duration of the study period and replenished with fresh saline.
Procedure of Example 39 was repeated with the following 17B-Estradiol (ES) patch formulations. Normal saline in the receptor compartment was replaced by ethanol/saline (3:7).

[3] = Penetration of hydrocortisone through hairless mouse skin in diffusion cells; format: in vitro ADME, hairless mice; details: for % Penetration (hydrocortisone): 1% hydrocortisone, 2% 1,2-propanediol, 2% enhancer, average for two cells; for penetration enhancing properties as compared to the control (hydrocortisone): in words
Description: The compounds of Examples 8 and 13 were tested as penetration enhancing agents according to the procedure below:
(§1) The skin was incubated at 37° C. and the ambient humidity.
(§2) 100 microliters of the solution containing 1 mg of test drug was applied to the epidermal surface within the donor compartment. The entire contents from the 4.2 ml receptor compartment bathing the corium were removed for analysis at 5 or 6, 12 and 24 hours intervals. In each case, the receptor compartment was refilled with 4.2 ml of fresh normal saline.
(§3) The aliquots removed after 5 or 6, 12 and 24 hours were analyzed by HPLC using a C-18 reverse phase column.

[4] = Penetration of 5-fluorouracil through hairless mouse skin in diffusion cells; format: in vitro ADME, hairless mice; details: for % Penetration (5-Fluorouracil): 1% 5-Fluorouracil, 2% enhancer
Description: as §1, §2, §3
The compounds of Examples 8 was tested as penetration enhancers according to the procedure outlined under Example 49.

[5] = Examples 51-62 repeated with other penetration enhancers; comparison as penetration enhancing agents; details: in words
[6] = Hygroscopicity; format: physicochemical
Description: 34 g (127 mmoles) 1-(2-Hyrdoxyethyl)-2-undecyl-2-imidazoline was dissolved in 300 ml of hexane and 8.5 g […] of acetic acid in 50 ml of hexane were reacted. The precipitate was filtered and then dried at 40°-50° C. under high vacuum for 5 hours. Yield 40.7 g (97.8%).

[7] = patch, 3% PG, control without enhancer, receptor ethanol/saline (3:7)

Compound: O=C(O)Cc1ccccc1Nc1c(Cl)cccc1Cl [Diclofenac, reference compound]
Average Cumulative Amount of Diclofenac in Micrograms permeating over 24 hours [1]: 106.7 ± 33.5 Micrograms

Compound: C[C@]12CC[C@@H]3c4ccc(O)cc4CC[C@H]3[C@@H]1CC[C@@H]2O [ES, 17B-Estradiol]
Average Cumulative Amount of ES in Micrograms Permeating over 51 Hours [2]: 30.90 ± 1.00 Micrograms

Compound: CCCCCCCCCCCC1=NC(C)(C)CO1 [Example 8, 4,4-dimethyl-2-undecyl-2-oxazoline]
% Penetration (hydrocortisone) ([3]; 6 hrs): 16.1%
% Penetration (hydrocortisone) ([3]; 12 hrs): 28.2%
% Penetration (hydrocortisone) ([3]; 24 hrs): 49.1%
penetration enhancing properties as compared to the control (hydrocortisone) [3]: far superior penetration enhancing properties
% Penetration (5-Fluorouracil) ([4]; 6 hrs): 59.2%
% Penetration (5-Fluorouracil) ([4]; 12 hrs): 60.3%
% Penetration (5-Fluorouracil) ([4]; 24 hrs): 60.5%
penetration enhancement compared to the control (5-Fluorouracil) ([4]; in words): superior to the control

Second part, led by results:

% Penetration (hydrocortisone) ([3]; 6 hrs): 8.8%
% Penetration (hydrocortisone) ([3]; 12 hrs): 17.3%
% Penetration (hydrocortisone) ([3]; 24 hrs): 34.9%
Compound: CCCCCCCCCCCC1=NC(C)(CO)CO1 (centres unmarked) [Example 13, 4-hydroxymethyl-4-methyl-2-undecyl-2-oxazoline]
penetration enhancing properties as compared to the control (hydrocortisone) [3]: far superior penetration enhancing properties

permeation of Diclofenac through human skin compared to control [1]: increases the permeation
Compound: CCCCCCCCCCC1COC(C(F)(F)F)=N1 (centres unmarked) [Example 21, 4-Decyl-2-trifluoromethyl-2-oxazoline]
penetration enhancing, compared with the prior art and the other examples [5]: significantly superior penetration enhancing agents

hygroscopicity (hydroscopic [sic]) [6]: hydroscopic
Compound: CCCCCCCCCCCC1=NCCN1CCO [Example 37, 1-(2-Hyrdoxyethyl)-2-undecyl-2-imidazoline acetate]
behaviour upon absorbing moisture [6]: hydrated to a gel upon absorbing moisture

Average Cumulative Amount of PG in Micrograms Permeating over 51 Hours ([7]; SET A): 176.3 ± 92.0 Micrograms
Average Cumulative Amount of PG in Micrograms Permeating over 51 Hours ([7]; SET B): 25 ± 17 Micrograms
Compound: CC(=O)[C@H]1CC[C@H]2[C@@H]3CCC4=CC(=O)CC[C@]4(C)[C@H]3CC[C@]12C [PG, Progesterone]
